# According to patent publication US10239844B2, “Disubstituted triazole analogs” (BioVentures, LLC, priority 2014, dated 2019):
# Tested on: HOP-92
# Experiment: NCI 60 panel five-dose growth inhibition, Non-Small Cell Lung Cancer
# Assay type: cell-based, human
# Details: HOP-92, Non-Small Cell Lung Cancer
row,SMILES,TGI [µM]
1,"COc1ccc(-c2n[nH]nc2-c2cc(OC)c(OC)c(OC)c2)cc1 [Example 6, 4-(4-methoxyphenyl)-5-(3,4,5-trimethoxyphenyl)-2H-1,2,3-triazole]",0.54
2,"COc1cc(-c2n[nH]nc2-c2ccc3c(c2)OCCO3)cc(OC)c1OC [Example 7, 4-(2,3-dihydrobenzo[b][1,4]dioxin-6-yl)-5-(3,4,5-trimethoxyphenyl)-2H-1,2,3-triazole]",1.59

# Same assay, conditions: Homo sapiens; HOP-92, Non-Small Cell Lung Cancer
row,SMILES,GI50 [µM]
1,"COc1ccc(-c2n[nH]nc2-c2cc(OC)c(OC)c(OC)c2)cc1 [Example 6, 4-(4-methoxyphenyl)-5-(3,4,5-trimethoxyphenyl)-2H-1,2,3-triazole]",< 0.01
2,"COc1cc(-c2n[nH]nc2-c2ccc3c(c2)OCCO3)cc(OC)c1OC [Example 7, 4-(2,3-dihydrobenzo[b][1,4]dioxin-6-yl)-5-(3,4,5-trimethoxyphenyl)-2H-1,2,3-triazole]",0.122

# Tested on: ACHN
# Experiment: NCI 60 panel five-dose growth inhibition, Renal Cancer
# Assay type: cell-based, human
# Details: not given
row,SMILES,TGI [µM]
1,"COc1ccc(-c2n[nH]nc2-c2cc(OC)c(OC)c(OC)c2)cc1 [Example 6, 4-(4-methoxyphenyl)-5-(3,4,5-trimethoxyphenyl)-2H-1,2,3-triazole]",>100
2,"COc1cc(-c2n[nH]nc2-c2ccc3c(c2)OCCO3)cc(OC)c1OC [Example 7, 4-(2,3-dihydrobenzo[b][1,4]dioxin-6-yl)-5-(3,4,5-trimethoxyphenyl)-2H-1,2,3-triazole]",>100

# Same assay, conditions: Homo sapiens
row,SMILES,GI50 [µM]
1,"COc1ccc(-c2n[nH]nc2-c2cc(OC)c(OC)c(OC)c2)cc1 [Example 6, 4-(4-methoxyphenyl)-5-(3,4,5-trimethoxyphenyl)-2H-1,2,3-triazole]",< 0.01
2,"COc1cc(-c2n[nH]nc2-c2ccc3c(c2)OCCO3)cc(OC)c1OC [Example 7, 4-(2,3-dihydrobenzo[b][1,4]dioxin-6-yl)-5-(3,4,5-trimethoxyphenyl)-2H-1,2,3-triazole]",0.705

# Tested on: MDA-MB-231/ATCC
# Experiment: NCI 60 panel five-dose growth inhibition, Breast Cancer
# Assay type: cell-based, human
# Details: not given
row,SMILES,TGI [µM]
1,"COc1ccc(-c2n[nH]nc2-c2cc(OC)c(OC)c(OC)c2)cc1 [Example 6, 4-(4-methoxyphenyl)-5-(3,4,5-trimethoxyphenyl)-2H-1,2,3-triazole]",>100
2,"COc1cc(-c2n[nH]nc2-c2ccc3c(c2)OCCO3)cc(OC)c1OC [Example 7, 4-(2,3-dihydrobenzo[b][1,4]dioxin-6-yl)-5-(3,4,5-trimethoxyphenyl)-2H-1,2,3-triazole]",31.5

# Same assay, conditions: Homo sapiens
row,SMILES,GI50 [µM]
1,"COc1ccc(-c2n[nH]nc2-c2cc(OC)c(OC)c(OC)c2)cc1 [Example 6, 4-(4-methoxyphenyl)-5-(3,4,5-trimethoxyphenyl)-2H-1,2,3-triazole]",0.0444
2,"COc1cc(-c2n[nH]nc2-c2ccc3c(c2)OCCO3)cc(OC)c1OC [Example 7, 4-(2,3-dihydrobenzo[b][1,4]dioxin-6-yl)-5-(3,4,5-trimethoxyphenyl)-2H-1,2,3-triazole]",0.529

# Tested on: SK-OV-3
# Experiment: NCI 60 panel five-dose growth inhibition, Ovarian Cancer
# Assay type: cell-based, human
# Details: Homo sapiens; SK-OV-3, Ovarian Cancer
row,SMILES,GI50 [µM]
1,"COc1ccc(-c2n[nH]nc2-c2cc(OC)c(OC)c(OC)c2)cc1 [Example 6, 4-(4-methoxyphenyl)-5-(3,4,5-trimethoxyphenyl)-2H-1,2,3-triazole]",< 0.01
2,"COc1cc(-c2n[nH]nc2-c2ccc3c(c2)OCCO3)cc(OC)c1OC [Example 7, 4-(2,3-dihydrobenzo[b][1,4]dioxin-6-yl)-5-(3,4,5-trimethoxyphenyl)-2H-1,2,3-triazole]",0.486

# Same assay, conditions: SK-OV-3, Ovarian Cancer
row,SMILES,TGI [µM]
1,"COc1ccc(-c2n[nH]nc2-c2cc(OC)c(OC)c(OC)c2)cc1 [Example 6, 4-(4-methoxyphenyl)-5-(3,4,5-trimethoxyphenyl)-2H-1,2,3-triazole]",12.7
2,"COc1cc(-c2n[nH]nc2-c2ccc3c(c2)OCCO3)cc(OC)c1OC [Example 7, 4-(2,3-dihydrobenzo[b][1,4]dioxin-6-yl)-5-(3,4,5-trimethoxyphenyl)-2H-1,2,3-triazole]",93.2

# Tested on: NCI-H460
# Experiment: NCI 60 panel five-dose growth inhibition, Non-Small Cell Lung Cancer
# Assay type: cell-based, human
# Details: not given
row,SMILES,TGI [µM]
1,"COc1ccc(-c2n[nH]nc2-c2cc(OC)c(OC)c(OC)c2)cc1 [Example 6, 4-(4-methoxyphenyl)-5-(3,4,5-trimethoxyphenyl)-2H-1,2,3-triazole]",20.0
2,"COc1cc(-c2n[nH]nc2-c2ccc3c(c2)OCCO3)cc(OC)c1OC [Example 7, 4-(2,3-dihydrobenzo[b][1,4]dioxin-6-yl)-5-(3,4,5-trimethoxyphenyl)-2H-1,2,3-triazole]",28.7

# Same assay, conditions: Homo sapiens
row,SMILES,GI50 [µM]
1,"COc1ccc(-c2n[nH]nc2-c2cc(OC)c(OC)c(OC)c2)cc1 [Example 6, 4-(4-methoxyphenyl)-5-(3,4,5-trimethoxyphenyl)-2H-1,2,3-triazole]",0.0246
2,"COc1cc(-c2n[nH]nc2-c2ccc3c(c2)OCCO3)cc(OC)c1OC [Example 7, 4-(2,3-dihydrobenzo[b][1,4]dioxin-6-yl)-5-(3,4,5-trimethoxyphenyl)-2H-1,2,3-triazole]",0.335

# Tested on: IGROV1
# Experiment: NCI 60 panel five-dose growth inhibition, Ovarian Cancer
# Assay type: cell-based, human
# Details: not given
row,SMILES,TGI [µM]
1,"COc1ccc(-c2n[nH]nc2-c2cc(OC)c(OC)c(OC)c2)cc1 [Example 6, 4-(4-methoxyphenyl)-5-(3,4,5-trimethoxyphenyl)-2H-1,2,3-triazole]",30.3
2,"COc1cc(-c2n[nH]nc2-c2ccc3c(c2)OCCO3)cc(OC)c1OC [Example 7, 4-(2,3-dihydrobenzo[b][1,4]dioxin-6-yl)-5-(3,4,5-trimethoxyphenyl)-2H-1,2,3-triazole]",>100

# Same assay, conditions: Homo sapiens, IGROV-1
row,SMILES,GI50 [µM]
1,"COc1ccc(-c2n[nH]nc2-c2cc(OC)c(OC)c(OC)c2)cc1 [Example 6, 4-(4-methoxyphenyl)-5-(3,4,5-trimethoxyphenyl)-2H-1,2,3-triazole]",0.0332
2,"COc1cc(-c2n[nH]nc2-c2ccc3c(c2)OCCO3)cc(OC)c1OC [Example 7, 4-(2,3-dihydrobenzo[b][1,4]dioxin-6-yl)-5-(3,4,5-trimethoxyphenyl)-2H-1,2,3-triazole]",> 1

# Tested on: 5K-MEL-5
# Experiment: NCI 60 panel five-dose growth inhibition, Melanoma
# Assay type: cell-based, human
# Details: 5K-MEL-5, Melanoma
row,SMILES,TGI [µM]
1,"COc1ccc(-c2n[nH]nc2-c2cc(OC)c(OC)c(OC)c2)cc1 [Example 6, 4-(4-methoxyphenyl)-5-(3,4,5-trimethoxyphenyl)-2H-1,2,3-triazole]",0.16
2,"COc1cc(-c2n[nH]nc2-c2ccc3c(c2)OCCO3)cc(OC)c1OC [Example 7, 4-(2,3-dihydrobenzo[b][1,4]dioxin-6-yl)-5-(3,4,5-trimethoxyphenyl)-2H-1,2,3-triazole]",11.9

# Same assay, conditions: Homo sapiens; 5K-MEL-5, Melanoma
row,SMILES,GI50 [µM]
1,"COc1ccc(-c2n[nH]nc2-c2cc(OC)c(OC)c(OC)c2)cc1 [Example 6, 4-(4-methoxyphenyl)-5-(3,4,5-trimethoxyphenyl)-2H-1,2,3-triazole]",< 0.01
2,"COc1cc(-c2n[nH]nc2-c2ccc3c(c2)OCCO3)cc(OC)c1OC [Example 7, 4-(2,3-dihydrobenzo[b][1,4]dioxin-6-yl)-5-(3,4,5-trimethoxyphenyl)-2H-1,2,3-triazole]",> 1

# Tested on: MOLT-4
# Experiment: NCI 60 panel five-dose growth inhibition, Leukemia
# Assay type: cell-based, human
# Details: Homo sapiens; MOLT-4, Leukemia
row,SMILES,GI50 [µM]
1,"COc1ccc(-c2n[nH]nc2-c2cc(OC)c(OC)c(OC)c2)cc1 [Example 6, 4-(4-methoxyphenyl)-5-(3,4,5-trimethoxyphenyl)-2H-1,2,3-triazole]",0.0399
2,"COc1cc(-c2n[nH]nc2-c2ccc3c(c2)OCCO3)cc(OC)c1OC [Example 7, 4-(2,3-dihydrobenzo[b][1,4]dioxin-6-yl)-5-(3,4,5-trimethoxyphenyl)-2H-1,2,3-triazole]",0.572

# Same assay, conditions: MOLT-4, Leukemia
row,SMILES,TGI [µM]
1,"COc1ccc(-c2n[nH]nc2-c2cc(OC)c(OC)c(OC)c2)cc1 [Example 6, 4-(4-methoxyphenyl)-5-(3,4,5-trimethoxyphenyl)-2H-1,2,3-triazole]",11.6
2,"COc1cc(-c2n[nH]nc2-c2ccc3c(c2)OCCO3)cc(OC)c1OC [Example 7, 4-(2,3-dihydrobenzo[b][1,4]dioxin-6-yl)-5-(3,4,5-trimethoxyphenyl)-2H-1,2,3-triazole]",51.8

# Tested on: HCC-2998
# Experiment: NCI 60 panel five-dose growth inhibition, Colon Cancer
# Assay type: cell-based, human
# Details: HCC-2998, Colon Cancer
row,SMILES,TGI [µM]
1,"COc1ccc(-c2n[nH]nc2-c2cc(OC)c(OC)c(OC)c2)cc1 [Example 6, 4-(4-methoxyphenyl)-5-(3,4,5-trimethoxyphenyl)-2H-1,2,3-triazole]",17.5
2,"COc1cc(-c2n[nH]nc2-c2ccc3c(c2)OCCO3)cc(OC)c1OC [Example 7, 4-(2,3-dihydrobenzo[b][1,4]dioxin-6-yl)-5-(3,4,5-trimethoxyphenyl)-2H-1,2,3-triazole]",24.6

# Same assay, conditions: Homo sapiens; HCC-2998, Colon Cancer
row,SMILES,GI50 [µM]
1,"COc1ccc(-c2n[nH]nc2-c2cc(OC)c(OC)c(OC)c2)cc1 [Example 6, 4-(4-methoxyphenyl)-5-(3,4,5-trimethoxyphenyl)-2H-1,2,3-triazole]",0.0394
2,"COc1cc(-c2n[nH]nc2-c2ccc3c(c2)OCCO3)cc(OC)c1OC [Example 7, 4-(2,3-dihydrobenzo[b][1,4]dioxin-6-yl)-5-(3,4,5-trimethoxyphenyl)-2H-1,2,3-triazole]",> 1

# Tested on: U251
# Experiment: NCI 60 panel five-dose growth inhibition, CNS Cancer
# Assay type: cell-based, human
# Details: not given
row,SMILES,TGI [µM]
1,"COc1ccc(-c2n[nH]nc2-c2cc(OC)c(OC)c(OC)c2)cc1 [Example 6, 4-(4-methoxyphenyl)-5-(3,4,5-trimethoxyphenyl)-2H-1,2,3-triazole]",22.7
2,"COc1cc(-c2n[nH]nc2-c2ccc3c(c2)OCCO3)cc(OC)c1OC [Example 7, 4-(2,3-dihydrobenzo[b][1,4]dioxin-6-yl)-5-(3,4,5-trimethoxyphenyl)-2H-1,2,3-triazole]",11.2

# Same assay, conditions: Homo sapiens, U-251
row,SMILES,GI50 [µM]
1,"COc1ccc(-c2n[nH]nc2-c2cc(OC)c(OC)c(OC)c2)cc1 [Example 6, 4-(4-methoxyphenyl)-5-(3,4,5-trimethoxyphenyl)-2H-1,2,3-triazole]",0.0201
2,"COc1cc(-c2n[nH]nc2-c2ccc3c(c2)OCCO3)cc(OC)c1OC [Example 7, 4-(2,3-dihydrobenzo[b][1,4]dioxin-6-yl)-5-(3,4,5-trimethoxyphenyl)-2H-1,2,3-triazole]",0.302

# Tested on: HOP-62
# Experiment: NCI 60 panel five-dose growth inhibition, Non-Small Cell Lung Cancer
# Assay type: cell-based, human
# Details: HOP-62, Non-Small Cell Lung Cancer
row,SMILES,TGI [µM]
1,"COc1ccc(-c2n[nH]nc2-c2cc(OC)c(OC)c(OC)c2)cc1 [Example 6, 4-(4-methoxyphenyl)-5-(3,4,5-trimethoxyphenyl)-2H-1,2,3-triazole]",19.3
2,"COc1cc(-c2n[nH]nc2-c2ccc3c(c2)OCCO3)cc(OC)c1OC [Example 7, 4-(2,3-dihydrobenzo[b][1,4]dioxin-6-yl)-5-(3,4,5-trimethoxyphenyl)-2H-1,2,3-triazole]",>100

# Same assay, conditions: Homo sapiens; HOP-62, Non-Small Cell Lung Cancer
row,SMILES,GI50 [µM]
1,"COc1ccc(-c2n[nH]nc2-c2cc(OC)c(OC)c(OC)c2)cc1 [Example 6, 4-(4-methoxyphenyl)-5-(3,4,5-trimethoxyphenyl)-2H-1,2,3-triazole]",0.0182
2,"COc1cc(-c2n[nH]nc2-c2ccc3c(c2)OCCO3)cc(OC)c1OC [Example 7, 4-(2,3-dihydrobenzo[b][1,4]dioxin-6-yl)-5-(3,4,5-trimethoxyphenyl)-2H-1,2,3-triazole]",0.336
